Data on five compounds can be found in patent US20140154330A1, “SPHERICAL PARTICLES OF CLOPIDOGREL BISULFATE, PHARMACEUTICAL COMPOSITION COMPRISING THE SAME, AND PREPARATION METHOD THEREOF” (ASTECH. CO., LTD., priority 2011, published 2014).

The conditions of data set [1]: laser diffraction, dry module, 1 bar. The procedure: The particles obtained in Example 1 and Comparative Examples 1 and 2 were analyzed for particle size distribution using a particle size analyzer (Mastersizer 2000®, Malvern) based on laser diffraction. The samples were injected at a pressure of 1 bar with a dry module (Scirocco 2000®, Malvern). Each particle was measured for particle size (d0.1), particle size (d0.5) and particle size (d0.9).

The conditions of data set [2]: crystalline form; see U.S. Pat. No. 6,429,210; cited from earlier work.

With `COC(=O)[C@H](c1ccccc1Cl)N1CCc2sccc2C1` [Comp. Example 1, clopidogrel bisulfate], in data set [1], the “d(0.1)” value amounted to 1.052 μm, the “d(0.5)” value is 6.055 μm and the “d(0.9)” value is 13.724 μm.

Take `COC(=O)[C@H](c1ccccc1Cl)N1CCc2sccc2C1` [Comp. Example 2, clopidogrel bisulfate]: in data set [1], the “d(0.1)” value is listed as 8.475 μm, the “d(0.5)” value is on record as 85.770 μm and the “d(0.9)” value is 168.393 μm.

For `COC(=O)[C@H](c1ccccc1Cl)N1CCc2sccc2C1` [Example 1, clopidogrel bisulfate], in data set [1], the “d(0.1)” value is given as 52.536 μm, the “d(0.5)” value is 74.567 μm and the “d(0.9)” value is on record as 106.074 μm.

On to `COC(=O)[C@H](c1ccccc1Cl)N1CCc2sccc2C1` [Form I, clopidogrel bisulfate], for which the density in data set [2] is 1.505 g/cm^2.

`COC(=O)[C@H](c1ccccc1Cl)N1CCc2sccc2C1` [Form II, clopidogrel bisulfate]: the density in data set [2] was 1.462 g/cm^2.
